Measured values published in patent publication US6992070B2 (priority 2000, dated 2006).

System: ex vivo perfused rabbit heart (ventricular myocytes), Adgal adenovirus gene transfer
Assay type: cell-based

Structure (SMILES)	infection efficiency	pretreatment (exposure) time required for the enhancement of infection	percentage of infected cells	percentage of infected cells in the absence of VEGF
O=[N+]([O-])OCC(CO[N+](=O)[O-])O[N+](=O)[O-] [nitroglycerin]	replicates the increase in infection efficiency	2 min	–	–
CCCOc1ccccc1-c1nc2nn[nH]c2c(=O)[nH]1 [zaprinast]	–	–	increased the percentage of infected cells	No change
CCCc1nn(C)c2c(=O)[nH]c(-c3cc(S(=O)(=O)N4CCN(C)CC4)ccc3OCC)nc12 [Sildenafil, 5-[2-ethoxy-5-(4-methylpiperazin-1-ylsulphonyl)phenyl]-1-methyl-3-n-propyl-1,6-dihydro-7H-pyrazolo[4,3d]pyrimidin-7-one]	–	–	increased the percentage of infected cells	No change
NCCc1c[nH]c2ccc(O)cc12 [serotonin]	–	15 min	–	–
Nc1nc2c(nc(Br)n2[C@@H]2O[C@@H]3COP(=O)(O)O[C@H]3[C@H]2O)c(=O)[nH]1 [8-Br-cGMP]	replicates the increase in infection efficiency	2 min	–	–
